Measured values reported in US20140141459A1, “PENTRAXIN 3 ASSOCIATION WITH ASTHMA” (THE REGENTS OF THE UNIVERSITY OF MICHIGAN, priority 2011, published 2014).

Tests used:
[1] = tested on: A. fumigatus-induced asthma model; experiment: Bronchial hyper-responsiveness (Buxco plethysmograph, methacholine) in A. fumigatus-induced asthma model; format: in vivo, mice; details: vs PBS
Procedure: (§1) C57BL/6 mice were sensitized via intraperitoneal (i.p.) and subcutaneous (s.c.) route with a commercially available preparation of soluble A. fumigatus antigens dissolved in 0.2 ml of IFA. After three intranasal instillations of Aspergillus antigen, each spaced one-week apart, each mouse received 1×10^7 swollen conidia suspended in 30 μl of PBS tween 80 (0.1%; vol/vol) via intratracheal (i.t.) administration. All mice were euthanized with an overdose of Nembutal and lung homogenates were collected immediately following euthanization. Mouse PTX3 ELISA was completed on lung homogenate supernatant.
(§2) A. fumigatus-Induced Asthma Model was Established as Described in Example 1.
(§3) Mice were treated every other day from day 0 to 15 or from day 15 to 30 with PBS or human PTX3 (R&D System, Minneapolis, Minn., USA; 10 μg/injection). At days 15 and 30 after conidia challenge, bronchial hyper-responsiveness was assessed in a Buxco™ plethysmograph (Buxco, Troy, N.Y.) after intravenous methacholine injection (420 μg/Kg). Other parameters were determined after the assessment of airway hyper-responsiveness.

[2] = tested on: A. fumigatus-induced asthma model; experiment: Cytokine levels in whole lung homogenate in A. fumigatus-induced asthma model; format: in vivo, mice; details: day 30 after conidia challenge
Procedure: as §1, §2, §3
To investigate whether the treatment with exogenous PTX3 modified the cytokine profile in asthma, the levels of different cytokines in whole lungs homogenate from PBS and PTX3-treated mice at day 30 after conidia challenge were measured.

For “PTX3: human PTX3 (pentraxin 3) polypeptide from R&D System, administered to mice at 10 μg/injection”, the “airway resistance at day 15 after conidia” value ([1]; treated every other day from day 0 to 15, 10 μg/injection) was “significantly increased”, the “airway resistance at day 30 after conidia” value ([1]; treated every other day from day 15 to 30, 10 μg/injection) was “significantly decreased” and the “increase in IL-4” value ([2]; vs PBS treatment) was 1.8 fold. The “increase in IL-10” value ([2]; vs PBS treatment) was 1.8 fold, the “increase in IL-17” value ([2]; vs PBS treatment) was 3.7 fold and the “reduction in IFN-γ” value ([2]; vs PBS treatment) was 1.8 fold. The IL-18 levels ([2]; vs control group) was “significantly increased”, the “increase in CCL22 (MDC) levels” value ([2]; vs control group) was 1.7 fold and the “increase in IL-1α levels” value ([2]; vs control group) was 1.7 fold. The “increase in IL-1β levels” value ([2]; vs control group) was 1.7 fold.
